We go through twelve compounds from patent US8906925B2, “Pyrido[4,3-B]indoles containing rigid moieties” (Medivation Technologies, Inc., priority 2008, dated 2014).

Test [1] addresses human recombinant serotonin (5-Hydroxytryptamine) 5-HT7 receptor (Homo sapiens, UniProt P34969). Description: Serotonin 5-HT7 radioligand binding ([3H]LSD). An excerpt:
Receptor proteins were filtered and washed, the filters were then counted to determine [^3H]LSD specifically bound.

For test [2], the target named is T1, human recombinant serotonin (5-Hydroxytryptamine) 5-HT2C receptor (Homo sapiens, UniProt P28335).
T1 construct: expressed in transfected cells; host or cells: Chinese hamster ovary (CHO-K1) cells
T1 sequence (P28335 33-458): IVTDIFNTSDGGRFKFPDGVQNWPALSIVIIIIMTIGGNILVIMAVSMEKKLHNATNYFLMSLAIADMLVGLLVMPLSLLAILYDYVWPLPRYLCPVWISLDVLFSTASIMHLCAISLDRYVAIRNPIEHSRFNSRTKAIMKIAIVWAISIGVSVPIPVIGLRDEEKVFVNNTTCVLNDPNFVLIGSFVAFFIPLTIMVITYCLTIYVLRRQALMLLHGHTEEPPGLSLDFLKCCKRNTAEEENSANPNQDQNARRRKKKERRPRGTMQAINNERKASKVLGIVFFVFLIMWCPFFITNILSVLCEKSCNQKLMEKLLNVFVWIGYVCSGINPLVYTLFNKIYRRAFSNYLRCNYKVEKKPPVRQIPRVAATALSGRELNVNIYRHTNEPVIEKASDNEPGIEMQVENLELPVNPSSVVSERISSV
Description: Serotonin 5-HT2C radioligand binding ([3H]Mesulergine). The following applies: for inhibition at 1 µM / inhibition at 0.1 µM: read-out: Inhibition of ligand binding, Serotonin 5-HT2C (percent inhibition of specific binding); for inhibition at 0.1 µM: compound at 0.1 μM. In short, it runs like this:
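Compounds tested at 1 μM or lower (1% DMSO vehicle) for displacement of 1 nM [3H]Mesulergine over 60 min at 25° C. Specific binding determined by filtration counting, with 1 μM Mianserin defining non-specific binding; values are percent inhibition.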

Test [3] deals with T2, human recombinant serotonin (5-Hydroxytryptamine) 5-HT2A receptor (Homo sapiens, UniProt P28223).
T2 construct: expressed in transfected cells; host or cells: Chinese hamster ovary (CHO-K1) cells
T2 sequence (P28223 whole entry): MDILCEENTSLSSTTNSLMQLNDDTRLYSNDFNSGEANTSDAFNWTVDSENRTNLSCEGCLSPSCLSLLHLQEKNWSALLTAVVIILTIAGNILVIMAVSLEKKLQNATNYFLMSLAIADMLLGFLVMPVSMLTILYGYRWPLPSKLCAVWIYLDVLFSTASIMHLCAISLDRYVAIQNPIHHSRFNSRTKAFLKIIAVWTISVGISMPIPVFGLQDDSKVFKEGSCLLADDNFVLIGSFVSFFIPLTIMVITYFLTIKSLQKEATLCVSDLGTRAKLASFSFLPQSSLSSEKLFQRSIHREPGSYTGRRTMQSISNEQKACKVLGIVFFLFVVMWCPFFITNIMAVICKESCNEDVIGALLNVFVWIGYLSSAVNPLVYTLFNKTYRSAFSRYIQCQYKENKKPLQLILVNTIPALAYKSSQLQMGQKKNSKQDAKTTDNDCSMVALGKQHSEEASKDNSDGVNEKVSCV
Description: Serotonin 5-HT2A radioligand binding ([3H]Ketanserin). The following applies: for inhibition at 1 µM: read-out: Inhibition of ligand binding, Serotonin 5-HT2A (percent inhibition of specific binding), compound at 1 μM; for inhibition at 0.1 µM: read-out: Inhibition of ligand binding, Serotonin 5-HT2A (percent inhibition of specific binding), compound at 0.1 μM; for Inhibition of ligand binding, Serotonin 5-HT2A (percent inhibition of specific binding): compound at 1 μM, 1 µM. On the procedure: Compounds of the invention were incubated with 0.5 nM [^3H]Ketanserin for 60 min. at 25° C. Non-specific binding was estimated in the presence of 1 μM Mianserin. Receptor proteins were filtered and washed, the filters were then counted to determine [^3H]Ketanserin specifically bound.

The target in test [4] is T3, human recombinant histamine H2 receptor (Homo sapiens, UniProt P25021).
T3 construct: expressed in transfected cells; host or cells: Chinese hamster ovary (CHO) K1 cells
T3 sequence (P25021 whole entry): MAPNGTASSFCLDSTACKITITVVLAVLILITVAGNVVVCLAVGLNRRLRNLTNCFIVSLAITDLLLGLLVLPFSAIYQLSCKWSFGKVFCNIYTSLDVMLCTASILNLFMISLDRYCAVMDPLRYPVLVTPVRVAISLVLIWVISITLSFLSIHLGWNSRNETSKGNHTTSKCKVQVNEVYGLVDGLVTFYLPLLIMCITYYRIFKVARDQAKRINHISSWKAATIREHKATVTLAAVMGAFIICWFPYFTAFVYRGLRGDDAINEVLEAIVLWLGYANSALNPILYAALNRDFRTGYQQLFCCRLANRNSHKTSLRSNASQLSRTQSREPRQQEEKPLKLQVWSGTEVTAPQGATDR
As to the kind of experiment: Histamine H2 radioligand binding ([125I]Aminopotentidine). The following applies: read-out: Histamine Binding (1 μM) H2, percent inhibition of specific binding, 1 μM. In short, it runs like this:
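CHO-K1 cells expressing human recombinant H2 receptor, 50 mM phosphate buffer pH 7.4; compounds incubated with 0.1 nM [125I]aminopotentidine for 120 min at 25 °C. Nonspecific binding defined with 3 μM tiotidine; specifically bound radioligand counted after filtration and washing.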

Test [5] deals with T4, human recombinant adrenergic α1D receptor (Homo sapiens, UniProt P25100).
T4 construct: expressed in transfected cells; host or cells: human embryonic kidney (HEK-293) cells
T4 sequence (P25100 1-572): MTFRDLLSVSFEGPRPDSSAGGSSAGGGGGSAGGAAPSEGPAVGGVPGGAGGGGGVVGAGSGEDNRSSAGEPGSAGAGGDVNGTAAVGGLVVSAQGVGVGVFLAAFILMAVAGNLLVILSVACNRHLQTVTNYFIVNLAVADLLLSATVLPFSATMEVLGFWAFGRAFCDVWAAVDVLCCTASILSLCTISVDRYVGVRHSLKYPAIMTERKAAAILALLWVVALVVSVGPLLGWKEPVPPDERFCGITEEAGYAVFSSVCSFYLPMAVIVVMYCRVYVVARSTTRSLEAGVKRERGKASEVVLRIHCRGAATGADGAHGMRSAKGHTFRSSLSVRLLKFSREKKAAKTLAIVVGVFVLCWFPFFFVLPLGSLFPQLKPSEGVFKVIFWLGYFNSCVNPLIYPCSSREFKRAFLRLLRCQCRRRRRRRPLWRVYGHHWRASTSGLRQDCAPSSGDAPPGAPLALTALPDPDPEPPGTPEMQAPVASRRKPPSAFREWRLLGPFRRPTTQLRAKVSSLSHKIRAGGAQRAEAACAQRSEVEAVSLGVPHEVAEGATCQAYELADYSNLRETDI
As to the kind of experiment: Adrenergic α1D radioligand binding ([3H]Prozosin). The following applies: compound at 1 μM. As for the experimental part:
Compounds of invention were incubated with 0.6 nM [^3H]Prozosin for 60 min. at 25° C. Non-specific binding was estimated in the presence of 10 μM phentolamine. Receptor proteins were filtered and washed, the filters were then counted to determine [^3H]Prozosin specifically bound. Compounds were screened at 1 μM or lower, using 1% DMSO as vehicle. Biochemical assay results are presented as the percent inhibition of specific binding in Table 9.

Where [6] appears, read: compound at 1 μM, read-out: Inhibition of ligand binding, Serotonin 5-HT7 (percent inhibition of specific binding).
[7] abbreviates: percent inhibition of specific binding, read-out: Inhibition of ligand binding, Adrenergic α1D.
Setting [8] is: read-out: Inhibition of ligand binding, Adrenergic α1D (percent inhibition of specific binding).

What is called inhibition is the drop in the measured response relative to a control, in per cent.

SMILES strings stand for the structures. Where two headings read alike, the source gives them in different places.

Chain of human recombinant serotonin (5-Hydroxytryptamine) 5-HT7 receptor (P34969 whole entry): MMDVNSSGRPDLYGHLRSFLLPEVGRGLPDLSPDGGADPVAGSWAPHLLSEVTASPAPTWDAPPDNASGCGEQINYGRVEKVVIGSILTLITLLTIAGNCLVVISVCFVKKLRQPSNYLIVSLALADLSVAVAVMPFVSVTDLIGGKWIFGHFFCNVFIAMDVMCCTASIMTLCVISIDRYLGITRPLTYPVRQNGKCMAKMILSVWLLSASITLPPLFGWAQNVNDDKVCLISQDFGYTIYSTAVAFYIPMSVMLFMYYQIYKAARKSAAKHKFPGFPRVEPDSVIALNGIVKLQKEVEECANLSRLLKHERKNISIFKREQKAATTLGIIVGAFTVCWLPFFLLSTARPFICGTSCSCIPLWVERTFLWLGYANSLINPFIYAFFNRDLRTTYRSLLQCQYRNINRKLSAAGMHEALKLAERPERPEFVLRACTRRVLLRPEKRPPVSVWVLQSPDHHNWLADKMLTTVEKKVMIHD

With `C/C(=C/n1c2c(c3cc(Cl)ccc31)CN(C)CC2)c1ccccc1F` [Compound 212, (Z)-8-chloro-5-(2-(2-fluorophenyl)prop-1-enyl)-2-methyl-2,3,4,5-tetrahydro-1H-pyrido[4,3-b]indole], the inhibition at 1 µM in test [1] (setting [6]) was 98%; in test [2] (compound at 1 μM), 104%; in test [3], 91%; in test [4], 84%; in test [5] (setting [7]) it was 78%.
In the case of `CN1CCc2c(c3cc(Cl)ccc3n2CC(O)(c2ccc(F)cc2)C2CCC2)C1` (stereo not shown) [Compound 177, 2-(8-chloro-2-methyl-3,4-dihydro-1H-pyrido[4,3-b]indol-5(2H)-yl)-1-cyclobutyl-1-(4-fluorophenyl)ethanol], the inhibition at 1 µM in test [1] (setting [6]) was 42%; in test [2] (compound at 1 μM) it was 95%; in test [3], 97%; in test [4] it was 101%; in test [5] (setting [7]) it was 70%.
For `C/C(=C\n1c2c(c3cc(C)ccc31)CN(C)CC2)c1ccc(Cl)cc1` [Compound 211, (E)-5-(2-(4-chlorophenyl)prop-1-enyl)-2,8-dimethyl-2,3,4,5-tetrahydro-1H-pyrido[4,3-b]indole], the inhibition at 1 µM in test [1] (setting [6]) stood at 101%; in test [2] (compound at 1 μM) it was 107%; in test [3], 99%; in test [4], 100%; in test [5] (setting [7]) it was 96%. Besides, the values for the inhibition at 0.1 µM in test [2] and in test [3] were 98% and 97%, respectively.
Take `COC(=O)c1ccc2c(c1)c1c(n2C#Cc2ccc(F)cc2)CCN(C)C1` [Compound No. 479, methyl 5-((4-fluorophenyl)ethynyl)-2-methyl-2,3,4,5-tetrahydro-1H-pyrido[4,3-b]indole-8-carboxylate]: the inhibition at 1 µM in test [1] (setting [6]) was determined as 17%; in test [2] (compound at 1 μM), 69%; in test [3], 78%; in test [4], 51%; in test [5] (setting [8]), 55%.
As for `CN1CCc2c(c3cc(Cl)ccc3n2C/C(=C\CCO)c2ccc(F)cc2)C1` [Compound No. 348, (Z)-5-(8-chloro-2-methyl-3,4-dihydro-1H-pyrido[4,3-b]indol-5(2H)-yl)-4-(4-fluorophenyl)pent-3-en-1-ol], the “Inhibition of ligand binding, Serotonin 5-HT7 (percent inhibition of specific binding)” value in test [1] (compound at 1 μM) is reported as 93/93%. The inhibition at 1 µM in test [1] (setting [6]) was found to be 93%; in test [2] (compound at 1 μM) it was 91%; in test [3] it was 99%; in test [4] it was 73%; in test [5] (setting [7]), 35%. The “Inhibition of ligand binding, Serotonin 5-HT2C (percent inhibition of specific binding)” value in test [2] (compound at 1 μM, 1 µM) is 95%. The “Inhibition of ligand binding, Serotonin 5-HT2A (percent inhibition of specific binding)” value in test [3] is listed as 100%.
For `Cc1ccc2c(c1)c1c(n2C#Cc2ccc(Cl)cc2)CCN(C)C1` [Compound No. 481, 5-((4-chlorophenyl)ethynyl)-2,8-dimethyl-2,3,4,5-tetrahydro-1H-pyrido[4,3-b]indole], the inhibition at 1 µM was 84% in test [1] (setting [6]); 104% in test [2] (compound at 1 μM); 101% in test [3]; 97% in test [4]; 77% in test [5] (setting [8]).
The matching figures for `Cc1ccc2c(c1)c1c(n2CC#Cc2ccccn2)CCN(C)C1` [Compound No. 500, 2,3,4,5-tetrahydro-2,8-dimethyl-5-(3-(pyridin-2-yl)prop-2-ynyl)-1H-pyrido[4,3-b]indole]: 48%, 77%, 40%, 30% and 11%.
`CCCC/C(=C\n1c2c(c3cc(Cl)ccc31)CN(C)CC2)c1ccc(F)cc1` [Compound 208, (E)-8-chloro-5-(2-(4-fluorophenyl)hex-1-enyl)-2-methyl-2,3,4,5-tetrahydro-1H-pyrido[4,3-b]indole]: the inhibition at 1 µM was determined as 100% in test [1] (setting [6]); 102% in test [2] (compound at 1 μM); 102% in test [3]; 102% in test [4]; 89% in test [5] (setting [7]).
Take `CN1CCc2c(c3cc(Cl)ccc3n2/C=C(/c2ccc(F)cc2)C2CC2)C1` [Compound 110, (E)-8-chloro-5-(2-cyclopropyl-2-(4-fluorophenyl)vinyl)-2,3,4,5-tetrahydro-2-methyl-1H-pyrido[4,3-b]indole]: the inhibition at 1 µM in test [1] (setting [6]) worked out at 92%; in test [2] (compound at 1 μM) it was 101%; in test [3], 98%; in test [4], 102%; in test [5] (setting [7]), 86%. Further, the values for the inhibition at 0.1 µM in test [2] and in test [3] were 99% and 102%, respectively.
`COc1ccc(C(C)(O)Cn2c3c(c4cc(C)ccc42)CN(C)CC3)cc1` (stereo not shown) [Compound 174, 1-(2,8-dimethyl-3,4-dihydro-1H-pyrido[4,3-b]indol-5(2H)-yl)-2-(4-methoxyphenyl)propan-2-ol]: the inhibition at 0.1 µM in test [1] (compound at 0.1 μM, read-out: Inhibition of ligand binding, Serotonin 5-HT7 (percent inhibition of specific binding)) amounted to 68%; in test [2], 96%; in test [3], 96%. For the same compound, the inhibition at 1 µM worked out at 95% in test [1] (setting [6]); 95% in test [2] (compound at 1 μM); 97% in test [3]; 80% in test [4]; 57% in test [5] (setting [7]). In test [3], the “Inhibition of ligand binding, Serotonin 5-HT2A (percent inhibition of specific binding)” value amounted to 100%.
For `Cc1ccc2c(c1)c1c(n2CC(O)c2ccc(F)cc2)CCN(C)C1` (stereo not shown) [Compound 172, 2-(2,8-dimethyl-3,4-dihydro-1H-pyrido[4,3-b]indol-5(2H)-yl)-1-(4-fluorophenyl)ethanol], the inhibition at 1 µM in test [1] (setting [6]) is 100%; in test [2] (compound at 1 μM) it was 97%; in test [3], 91%; in test [4], 65%; in test [5] (setting [7]), 88%.
For `Cc1ccc2c(c1)c1c(n2CC(O)(c2ccc(F)cc2)C2CCCCC2)CCN(C)C1` (stereo not shown) [Compound 171, 1-cyclohexyl-2-(2,8-dimethyl-3,4-dihydro-1H-pyrido[4,3-b]indol-5(2H)-yl)-1-(4-fluorophenyl)ethanol], the inhibition at 1 µM in test [1] (setting [6]) came to 42%; in test [2] (compound at 1 μM) it was 98%; in test [3] it was 97%; in test [4], 85%; in test [5] (setting [7]), 49%. In addition, the inhibition at 0.1 µM in test [2] was found to be 51%; in test [3] it was 60%.
